According to US8192962B2, “Processes for detecting toxic substances” (Daikin Industries, Ltd., priority 2001, dated 2012):

Test system: Unknown protein yeast genes
Test: DNA chip mRNA expression in yeast, unknown protein yeast genes (Table 1)
Type: cell-based, Saccharomyces cerevisiae S288C
Method in brief: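 Expression change after 2 h toxicant exposure (growth-inhibiting, sub-lethal) of log-phase S. cerevisiae S288C at 25° C. Oligo-dT-purified mRNA was labeled with Cy3-dUTP or Cy5-dUTP and hybridized >12 h at 65° C. to a genome-wide chip; ratio of scanned fluorescence to control.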

`Oc1cc(Cl)c(Cl)cc1Cl` [(6), 2,4,5-trichlorophenol] was tested, and the “The level of expressed mRNA in the presence of chemical substance/The level of expressed mRNA in the absence of chemical substance” value (yeast gene YKL086W, incubated two hours with chemical substance) was 1.0, the “The level of expressed mRNA in the presence of chemical substance/The level of expressed mRNA in the absence of chemical substance” value (yeast gene YKL151C, incubated two hours with chemical substance) was 2.0 and the “The level of expressed mRNA in the presence of chemical substance/The level of expressed mRNA in the absence of chemical substance” value (yeast gene YKL153W, incubated two hours with chemical substance) was 2.9. The “The level of expressed mRNA in the presence of chemical substance/The level of expressed mRNA in the absence of chemical substance” value (yeast gene YKL195W, incubated two hours with chemical substance) was 2.5, the “The level of expressed mRNA in the presence of chemical substance/The level of expressed mRNA in the absence of chemical substance” value (yeast gene YKR018C) was 1.7 and the “The level of expressed mRNA in the presence of chemical substance/The level of expressed mRNA in the absence of chemical substance” value (yeast gene YKR049C) was 3.0. For the same compound, the “The level of expressed mRNA in the presence of chemical substance/The level of expressed mRNA in the absence of chemical substance” value (yeast gene YKR091W, incubated two hours with chemical substance) was 1.0, the “The level of expressed mRNA in the presence of chemical substance/The level of expressed mRNA in the absence of chemical substance” value (yeast gene YLR054C, incubated two hours with chemical substance) was 1.2 and the “The level of expressed mRNA in the presence of chemical substance/The level of expressed mRNA in the absence of chemical substance” value (yeast gene YLR149C, incubated two hours with chemical substance) was 1.4. For the same compound, the “The level of expressed mRNA in the presence of chemical substance/The level of expressed mRNA in the absence of chemical substance” value (yeast gene YLR152C, incubated two hours with chemical substance) was 2.1, the “The level of expressed mRNA in the presence of chemical substance/The level of expressed mRNA in the absence of chemical substance” value (yeast gene YLR194C, incubated two hours with chemical substance) was 0.9 and the “The level of expressed mRNA in the presence of chemical substance/The level of expressed mRNA in the absence of chemical substance” value (yeast gene YLR324W, incubated two hours with chemical substance) was 1.2. For the same compound, the “The level of expressed mRNA in the presence of chemical substance/The level of expressed mRNA in the absence of chemical substance” value (yeast gene YLR328W) was 4.8, the “The level of expressed mRNA in the presence of chemical substance/The level of expressed mRNA in the absence of chemical substance” value (yeast gene YLR350W, incubated two hours with chemical substance) was 1.6 and the “The level of expressed mRNA in the presence of chemical substance/The level of expressed mRNA in the absence of chemical substance” value (yeast gene YLR387C, incubated two hours with chemical substance) was 1.9. For the same compound, the “The level of expressed mRNA in the presence of chemical substance/The level of expressed mRNA in the absence of chemical substance” value (yeast gene YLR460C) was 0.6, the “The level of expressed mRNA in the presence of chemical substance/The level of expressed mRNA in the absence of chemical substance” value (yeast gene YML117W, incubated two hours with chemical substance) was 1.0 and the “The level of expressed mRNA in the presence of chemical substance/The level of expressed mRNA in the absence of chemical substance” value (yeast gene YMR009W, incubated two hours with chemical substance) was 1.2. For the same compound, the “The level of expressed mRNA in the presence of chemical substance/The level of expressed mRNA in the absence of chemical substance” value (yeast gene YMR040W) was 2.8, the “The level of expressed mRNA in the presence of chemical substance/The level of expressed mRNA in the absence of chemical substance” value (yeast gene YMR067C, incubated two hours with chemical substance) was 1.4 and the “The level of expressed mRNA in the presence of chemical substance/The level of expressed mRNA in the absence of chemical substance” value (yeast gene YMR090W) was 3.8. For the same compound, the “The level of expressed mRNA in the presence of chemical substance/The level of expressed mRNA in the absence of chemical substance” value (yeast gene YMR095C, incubated two hours with chemical substance) was 0.7, the “The level of expressed mRNA in the presence of chemical substance/The level of expressed mRNA in the absence of chemical substance” value (yeast gene YMR097C, incubated two hours with chemical substance) was 1.2 and the “The level of expressed mRNA in the presence of chemical substance/The level of expressed mRNA in the absence of chemical substance” value (yeast gene YMR102C, incubated two hours with chemical substance) was 6.3. The “The level of expressed mRNA in the presence of chemical substance/The level of expressed mRNA in the absence of chemical substance” value (yeast gene YMR107W, incubated two hours with chemical substance) was 1.0, the “The level of expressed mRNA in the presence of chemical substance/The level of expressed mRNA in the absence of chemical substance” value (yeast gene YMR180C, incubated two hours with chemical substance) was 2.4 and the “The level of expressed mRNA in the presence of chemical substance/The level of expressed mRNA in the absence of chemical substance” value (yeast gene YMR184W, incubated two hours with chemical substance) was 0.9. For the same compound, the “The level of expressed mRNA in the presence of chemical substance/The level of expressed mRNA in the absence of chemical substance” value (yeast gene YMR191W, incubated two hours with chemical substance) was 1.0, the “The level of expressed mRNA in the presence of chemical substance/The level of expressed mRNA in the absence of chemical substance” value (yeast gene YMR295C, incubated two hours with chemical substance) was 1.9 and the “The level of expressed mRNA in the presence of chemical substance/The level of expressed mRNA in the absence of chemical substance” value (yeast gene YMR316W, incubated two hours with chemical substance) was 0.7. The “The level of expressed mRNA in the presence of chemical substance/The level of expressed mRNA in the absence of chemical substance” value (yeast gene YNL044W, incubated two hours with chemical substance) was 0.9, the “The level of expressed mRNA in the presence of chemical substance/The level of expressed mRNA in the absence of chemical substance” value (yeast gene YNL074C, incubated two hours with chemical substance) was 1.7 and the “The level of expressed mRNA in the presence of chemical substance/The level of expressed mRNA in the absence of chemical substance” value (yeast gene YNL092W, incubated two hours with chemical substance) was 1.2. For the same compound, the “The level of expressed mRNA in the presence of chemical substance/The level of expressed mRNA in the absence of chemical substance” value (yeast gene YNL115C, incubated two hours with chemical substance) was 9.1, the “The level of expressed mRNA in the presence of chemical substance/The level of expressed mRNA in the absence of chemical substance” value (yeast gene YNL156C, incubated two hours with chemical substance) was 1.3 and the “The level of expressed mRNA in the presence of chemical substance/The level of expressed mRNA in the absence of chemical substance” value (yeast gene YNL234W, incubated two hours with chemical substance) was 1.3. For the same compound, the “The level of expressed mRNA in the presence of chemical substance/The level of expressed mRNA in the absence of chemical substance” value (yeast gene YNL281W, incubated two hours with chemical substance) was 0.9, the “The level of expressed mRNA in the presence of chemical substance/The level of expressed mRNA in the absence of chemical substance” value (yeast gene YNL305C, incubated two hours with chemical substance) was 1.1 and the “The level of expressed mRNA in the presence of chemical substance/The level of expressed mRNA in the absence of chemical substance” value (yeast gene YNR068C, incubated two hours with chemical substance) was 0.4. The “The level of expressed mRNA in the presence of chemical substance/The level of expressed mRNA in the absence of chemical substance” value (yeast gene YOL032W, incubated two hours with chemical substance) was 2.1, the “The level of expressed mRNA in the presence of chemical substance/The level of expressed mRNA in the absence of chemical substance” value (yeast gene YOL036W, incubated two hours with chemical substance) was 1.2 and the “The level of expressed mRNA in the presence of chemical substance/The level of expressed mRNA in the absence of chemical substance” value (yeast gene YOL047C, incubated two hours with chemical substance) was 1.5. The “The level of expressed mRNA in the presence of chemical substance/The level of expressed mRNA in the absence of chemical substance” value (yeast gene YOL071W, incubated two hours with chemical substance) was 1.7, the “The level of expressed mRNA in the presence of chemical substance/The level of expressed mRNA in the absence of chemical substance” value (yeast gene YOL082W, incubated two hours with chemical substance) was 1.8 and the “The level of expressed mRNA in the presence of chemical substance/The level of expressed mRNA in the absence of chemical substance” value (yeast gene YOL083W, incubated two hours with chemical substance) was 4.5. For the same compound, the “The level of expressed mRNA in the presence of chemical substance/The level of expressed mRNA in the absence of chemical substance” value (yeast gene YOL117W, incubated two hours with chemical substance) was 2.0, the “The level of expressed mRNA in the presence of chemical substance/The level of expressed mRNA in the absence of chemical substance” value (yeast gene YOL131W, incubated two hours with chemical substance) was 1.1 and the “The level of expressed mRNA in the presence of chemical substance/The level of expressed mRNA in the absence of chemical substance” value (yeast gene YOL150C) was 5.2. The “The level of expressed mRNA in the presence of chemical substance/The level of expressed mRNA in the absence of chemical substance” value (yeast gene YOL162W, incubated two hours with chemical substance) was 1.2, the “The level of expressed mRNA in the presence of chemical substance/The level of expressed mRNA in the absence of chemical substance” value (yeast gene YOR019W, incubated two hours with chemical substance) was 1.3 and the “The level of expressed mRNA in the presence of chemical substance/The level of expressed mRNA in the absence of chemical substance” value (yeast gene YOR197W, incubated two hours with chemical substance) was 1.3. For the same compound, the “The level of expressed mRNA in the presence of chemical substance/The level of expressed mRNA in the absence of chemical substance” value (yeast gene YPL087W, incubated two hours with chemical substance) was 4.3, the “The level of expressed mRNA in the presence of chemical substance/The level of expressed mRNA in the absence of chemical substance” value (yeast gene YPL196W, incubated two hours with chemical substance) was 2.0 and the “The level of expressed mRNA in the presence of chemical substance/The level of expressed mRNA in the absence of chemical substance” value (yeast gene YPL206C, incubated two hours with chemical substance) was 1.8. For the same compound, the “The level of expressed mRNA in the presence of chemical substance/The level of expressed mRNA in the absence of chemical substance” value (yeast gene YPL222W, incubated two hours with chemical substance) was 2.2, the “The level of expressed mRNA in the presence of chemical substance/The level of expressed mRNA in the absence of chemical substance” value (yeast gene YPR023C, incubated two hours with chemical substance) was 1.4 and the “The level of expressed mRNA in the presence of chemical substance/The level of expressed mRNA in the absence of chemical substance” value (yeast gene YPR151C, incubated two hours with chemical substance) was 1.6.
